Species: Rattus norvegicus
Assay: DrugMatrix - Regimen: Daily Repeat
Type: toxicity, organism-based, Sprague-Dawley
Parameters: regimen Daily Repeat, gender Male, age 6-8 weeks
Details: in vivo, po, route oral GAVAGE, […]; for ABSOLUTE BASOPHIL / ABSOLUTE EOSINOPHIL / ABSOLUTE LYMPHOCYTE / ABSOLUTE MONOCYTE / ABSOLUTE SEGMENTED NEUTROPHIL / BASOPHIL / EOSINOPHIL / ERYTHROCYTE COUNT / HEMATOCRIT / HEMOGLOBIN / LEUKOCYTE COUNT / LYMPHOCYTE / MEAN CORPUSCULAR HEMOGLOBIN / MEAN CORPUSCULAR HEMOGLOBIN CONCENTRATION / MEAN CORPUSCULAR VOLUME / MONOCYTE / NEUTROPHIL / NUCLEATED RED BLOOD CELLS / PLATELET COUNT: tissue Blood; for ALANINE AMINOTRANSFERASE / ALBUMIN / ALKALINE PHOSPHATASE / ASPARTATE AMINOTRANSFERASE / BLOOD UREA NITROGEN / CARBON DIOXIDE / CHLORIDE / CHOLESTEROL / CREATINE PHOSPHOKINASE / CREATININE / GLUCOSE / LACTATE DEHYDROGENASE / LIPASE / PHOSPHORUS / POTASSIUM / SODIUM / TOTAL BILIRUBIN / TOTAL PROTEIN / URIC ACID: tissue Plasma
[1] = 13 mg/kg, 120 h, dose level Low, time 5 day
[2] = 40 mg/kg, 72 h, dose level High, time 3 day
[3] = 40 mg/kg, 120 h, dose level High, time 5 day

Which results are given for CN(C)c1nc(N(C)C)nc(N(C)C)n1 [ALTRETAMINE]?
ABSOLUTE BASOPHIL [1]: 0 CELLS/uL; ABSOLUTE EOSINOPHIL [1]: 0 CELLS/uL; ABSOLUTE LYMPHOCYTE [1]: 9932 CELLS/uL; ABSOLUTE MONOCYTE [1]: 0 CELLS/uL; ABSOLUTE SEGMENTED NEUTROPHIL [1]: 334.67 CELLS/uL; BASOPHIL [1]: 0%; EOSINOPHIL [1]: 0%; ERYTHROCYTE COUNT [1]: 5.3 x10E6/uL; HEMATOCRIT [1]: 32.5%; HEMOGLOBIN [1]: 12.67 G/DL; LEUKOCYTE COUNT [1]: 10.27 x10E3/uL; LYMPHOCYTE [1]: 96.33%; MEAN CORPUSCULAR HEMOGLOBIN [1]: 23.93 pg; MEAN CORPUSCULAR HEMOGLOBIN CONCENTRATION [1]: 38.97 G/DL; MEAN CORPUSCULAR VOLUME [1]: 61.4 fL; MONOCYTE [1]: 0%; NEUTROPHIL [1]: 3.67%; NUCLEATED RED BLOOD CELLS [1]: 0 /100WBC; PLATELET COUNT [1]: 759.33 x10E3/uL; ALANINE AMINOTRANSFERASE [1]: 60.67 u/L; ALBUMIN [1]: 4.13 G/DL; ALKALINE PHOSPHATASE [1]: 323.67 u/L; ASPARTATE AMINOTRANSFERASE [1]: 87 u/L; BLOOD UREA NITROGEN [1]: 13.33 mg/dL; CARBON DIOXIDE [1]: 29.67 mmol/L; CHLORIDE [1]: 98 MEQ/L; CHOLESTEROL [1]: 69.67 mg/dL; CREATINE PHOSPHOKINASE [1]: 230.33 u/L; CREATININE [1]: 0.15 mg/dL; GLUCOSE [1]: 150 mg/dL; LACTATE DEHYDROGENASE [1]: 137.67 u/L; LIPASE [1]: 22 u/L; PHOSPHORUS [1]: 10.3 mg/dL; POTASSIUM [1]: 5.84 MEQ/L; SODIUM [1]: 143.3 MEQ/L; TOTAL BILIRUBIN [1]: 0.1 mg/dL; TOTAL PROTEIN [1]: 5.83 G/DL; URIC ACID [1]: 0.87 mg/dL; ABSOLUTE BASOPHIL [2]: 0 CELLS/uL; ABSOLUTE EOSINOPHIL [2]: 41 CELLS/uL; ABSOLUTE LYMPHOCYTE [2]: 13401 CELLS/uL; ABSOLUTE MONOCYTE [2]: 108.67 CELLS/uL; ABSOLUTE SEGMENTED NEUTROPHIL [2]: 749.33 CELLS/uL; BASOPHIL [2]: 0%; EOSINOPHIL [2]: 0.33%; ERYTHROCYTE COUNT [2]: 5.98 x10E6/uL; HEMATOCRIT [2]: 37.43%; HEMOGLOBIN [2]: 14.53 G/DL; LEUKOCYTE COUNT [2]: 14.3 x10E3/uL; LYMPHOCYTE [2]: 93.67%; MEAN CORPUSCULAR HEMOGLOBIN [2]: 24.33 pg; MEAN CORPUSCULAR HEMOGLOBIN CONCENTRATION [2]: 38.83 G/DL; MEAN CORPUSCULAR VOLUME [2]: 62.7 fL; MONOCYTE [2]: 0.67%; NEUTROPHIL [2]: 5.33%; NUCLEATED RED BLOOD CELLS [2]: 0 /100WBC; PLATELET COUNT [2]: 1084 x10E3/uL; ALANINE AMINOTRANSFERASE [2]: 107.67 u/L; ALBUMIN [2]: 4.17 G/DL; ALKALINE PHOSPHATASE [2]: 335.33 u/L; ASPARTATE AMINOTRANSFERASE [2]: 98.67 u/L; BLOOD UREA NITROGEN [2]: 12.33 mg/dL; CARBON DIOXIDE [2]: 26.33 mmol/L; CHLORIDE [2]: 100.67 MEQ/L; CHOLESTEROL [2]: 73 mg/dL; CREATINE PHOSPHOKINASE [2]: 457.67 u/L; CREATININE [2]: 0.17 mg/dL; GLUCOSE [2]: 160.67 mg/dL; LACTATE DEHYDROGENASE [2]: 170.67 u/L; LIPASE [2]: 10.67 u/L; PHOSPHORUS [2]: 10.97 mg/dL; POTASSIUM [2]: 6.05 MEQ/L; SODIUM [2]: 140.73 MEQ/L; TOTAL BILIRUBIN [2]: 0.2 mg/dL; TOTAL PROTEIN [2]: 5.73 G/DL; URIC ACID [2]: 1.97 mg/dL; ABSOLUTE BASOPHIL [3]: 0 CELLS/uL; ABSOLUTE EOSINOPHIL [3]: 0 CELLS/uL; ABSOLUTE LYMPHOCYTE [3]: 8752.67 CELLS/uL; ABSOLUTE MONOCYTE [3]: 0 CELLS/uL; ABSOLUTE SEGMENTED NEUTROPHIL [3]: 580.67 CELLS/uL; BASOPHIL [3]: 0%; EOSINOPHIL [3]: 0%; ERYTHROCYTE COUNT [3]: 5.98 x10E6/uL; HEMATOCRIT [3]: 36.53%; HEMOGLOBIN [3]: 14.1 G/DL; LEUKOCYTE COUNT [3]: 9.33 x10E3/uL; LYMPHOCYTE [3]: 94.33%; MEAN CORPUSCULAR HEMOGLOBIN [3]: 23.67 pg; MEAN CORPUSCULAR HEMOGLOBIN CONCENTRATION [3]: 38.6 G/DL; MEAN CORPUSCULAR VOLUME [3]: 61.23 fL; MONOCYTE [3]: 0%; NEUTROPHIL [3]: 5.67%; NUCLEATED RED BLOOD CELLS [3]: 0 /100WBC; PLATELET COUNT [3]: 779.67 x10E3/uL; ALANINE AMINOTRANSFERASE [3]: 65.33 u/L; ALBUMIN [3]: 4 G/DL; ALKALINE PHOSPHATASE [3]: 406 u/L; ASPARTATE AMINOTRANSFERASE [3]: 87.67 u/L; BLOOD UREA NITROGEN [3]: 12.67 mg/dL; CARBON DIOXIDE [3]: 34 mmol/L; CHLORIDE [3]: 97.67 MEQ/L; CHOLESTEROL [3]: 55.33 mg/dL; CREATINE PHOSPHOKINASE [3]: 274.33 u/L; CREATININE [3]: 0.15 mg/dL; GLUCOSE [3]: 151 mg/dL; LACTATE DEHYDROGENASE [3]: 133.67 u/L; LIPASE [3]: 10 u/L; PHOSPHORUS [3]: 10.63 mg/dL; POTASSIUM [3]: 5.18 MEQ/L; SODIUM [3]: 142.9 MEQ/L; TOTAL BILIRUBIN [3]: 0.17 mg/dL; TOTAL PROTEIN [3]: 5.77 G/DL; URIC ACID [3]: 0.47 mg/dL

Reference: ChEMBL document CHEMBL3885881, “DrugMatrix”
